In brackets after ≈: the same amount, converted by molar mass.
tested on: Candida tropicalis; assay: Antifungal activity against 9 days cultured Candida tropicalis isolated from neutropenic subject with AML or MDS stool receiving antifungal therapy for 45 days after 24 days of prophylaxis by broth microdilution method; assay type: functional

| SMILES | MIC [µg/mL] |
| --- | --- |
| CCC(C)n1ncn(-c2ccc(N3CCN(c4ccc(OCC5COC(Cn6cncn6)(c6ccc(Cl)cc6Cl)O5)cc4)CC3)cc2)c1=O (stereo unspecified) [ITRACONAZOLE] | 0.03 (≈ 0.0425 µM) |

tested on: Pichia kudriavzevii; assay: Antifungal activity against 14 days cultured Candida krusei isolated from neutropenic subject with AML or MDS stool after 12 days of prophylaxis by broth microdilution method; assay type: functional

| SMILES | MIC [µg/mL] |
| --- | --- |
| CCC(C)n1ncn(-c2ccc(N3CCN(c4ccc(OCC5COC(Cn6cncn6)(c6ccc(Cl)cc6Cl)O5)cc4)CC3)cc2)c1=O (stereo unspecified) [ITRACONAZOLE] | 0.25 (≈ 0.354 µM) |

tested on: Candida albicans; assay: Antifungal activity against Candida albicans isolated from HSCT recipient 031 with acute or chronic GVHD mouth receiving antifungal drug after 109 days prophylaxis by broth microdilution method; assay type: functional

| SMILES | MIC [µg/mL] |
| --- | --- |
| CCC(C)n1ncn(-c2ccc(N3CCN(c4ccc(OCC5COC(Cn6cncn6)(c6ccc(Cl)cc6Cl)O5)cc4)CC3)cc2)c1=O (stereo unspecified) [ITRACONAZOLE] | 0.06 (≈ 0.085 µM) |

tested on: Nakaseomyces glabratus; assay: Antifungal activity against 23 days cultured Candida glabrata isolated from neutropenic subject with AML or MDS stool receiving antifungal therapy for 25 days after 3 days of prophylaxis by broth microdilution method; assay type: functional

| SMILES | MIC [µg/mL] |
| --- | --- |
| CCC(C)n1ncn(-c2ccc(N3CCN(c4ccc(OCC5COC(Cn6cncn6)(c6ccc(Cl)cc6Cl)O5)cc4)CC3)cc2)c1=O (stereo unspecified) [ITRACONAZOLE] | 0.125 (≈ 0.177 µM) |

tested on: Candida albicans; assay: Antifungal activity against Candida albicans isolated from HSCT recipients with acute or chronic GVHD receiving posaconazole by broth microdilution method; assay type: functional

| SMILES | MIC50 [µg/mL] | MIC90 [µg/mL] |
| --- | --- | --- |
| CCC(C)n1ncn(-c2ccc(N3CCN(c4ccc(OCC5COC(Cn6cncn6)(c6ccc(Cl)cc6Cl)O5)cc4)CC3)cc2)c1=O (stereo unspecified) [ITRACONAZOLE] | 0.03 (≈ 0.0425 µM) | 0.25 (≈ 0.354 µM) |

tested on: Nakaseomyces glabratus; assay: Antifungal activity against Candida glabrata isolated from neutropenic subjects with AML or MDS receiving fluconazole by broth microdilution method; assay type: functional

| SMILES | MIC50 [µg/mL] | MIC90 [µg/mL] |
| --- | --- | --- |
| CCC(C)n1ncn(-c2ccc(N3CCN(c4ccc(OCC5COC(Cn6cncn6)(c6ccc(Cl)cc6Cl)O5)cc4)CC3)cc2)c1=O (stereo unspecified) [ITRACONAZOLE] | 0.5 (≈ 0.709 µM) | 2 (≈ 2.83 µM) |

tested on: Nakaseomyces glabratus; assay: Antifungal activity against 12 days cultured Candida glabrata isolated from HSCT recipient with acute or chronic GVHD mouth receiving antifungal therapy for 143 days after 116 days of prophylaxis by broth microdilution method; assay type: functional

| SMILES | MIC [µg/mL] |
| --- | --- |
| CCC(C)n1ncn(-c2ccc(N3CCN(c4ccc(OCC5COC(Cn6cncn6)(c6ccc(Cl)cc6Cl)O5)cc4)CC3)cc2)c1=O (stereo unspecified) [ITRACONAZOLE] | 4 (≈ 5.67 µM) |

tested on: Nakaseomyces glabratus; assay: Antifungal activity against 3 days cultured Candida glabrata isolated from neutropenic subject with AML or MDS stool receiving antifungal therapy for 25 days after 3 days of prophylaxis by broth microdilution method; assay type: functional

| SMILES | MIC [µg/mL] |
| --- | --- |
| CCC(C)n1ncn(-c2ccc(N3CCN(c4ccc(OCC5COC(Cn6cncn6)(c6ccc(Cl)cc6Cl)O5)cc4)CC3)cc2)c1=O (stereo unspecified) [ITRACONAZOLE] | 1 (≈ 1.42 µM) |

tested on: Nakaseomyces glabratus; assay: Antifungal activity against Candida glabrata isolated from HSCT recipient 975 with acute or chronic GVHD mouth after 112 days prophylaxis by broth microdilution method; assay type: functional

| SMILES | MIC [µg/mL] |
| --- | --- |
| CCC(C)n1ncn(-c2ccc(N3CCN(c4ccc(OCC5COC(Cn6cncn6)(c6ccc(Cl)cc6Cl)O5)cc4)CC3)cc2)c1=O (stereo unspecified) [ITRACONAZOLE] | 0.25 (≈ 0.354 µM) |

tested on: Nakaseomyces glabratus; assay: Antifungal activity against Candida glabrata isolated from neutropenic subjects with AML or MDS receiving posaconazole assessed as maximum MIC by broth microdilution method; assay type: functional

| SMILES | MIC [µg/mL] |
| --- | --- |
| CCC(C)n1ncn(-c2ccc(N3CCN(c4ccc(OCC5COC(Cn6cncn6)(c6ccc(Cl)cc6Cl)O5)cc4)CC3)cc2)c1=O (stereo unspecified) [ITRACONAZOLE] | 8 |

tested on: Nakaseomyces glabratus; assay: Antifungal activity against 25 days cultured Candida glabrata isolated from invasive fungal infected subject blood receiving antifungal therapy for 25 days after 3 days of prophylaxis by broth microdilution method; assay type: functional

| SMILES | MIC [µg/mL] |
| --- | --- |
| CCC(C)n1ncn(-c2ccc(N3CCN(c4ccc(OCC5COC(Cn6cncn6)(c6ccc(Cl)cc6Cl)O5)cc4)CC3)cc2)c1=O (stereo unspecified) [ITRACONAZOLE] | 2 (≈ 2.83 µM) |

tested on: Nakaseomyces glabratus; assay: Antifungal activity against -2 days cultured Candida glabrata isolated from HSCT recipient with acute or chronic GVHD mouth receiving antifungal therapy for 172 days after 114 days of prophylaxis by broth microdilution method; assay type: functional

| SMILES | MIC [µg/mL] |
| --- | --- |
| CCC(C)n1ncn(-c2ccc(N3CCN(c4ccc(OCC5COC(Cn6cncn6)(c6ccc(Cl)cc6Cl)O5)cc4)CC3)cc2)c1=O (stereo unspecified) [ITRACONAZOLE] | 1 (≈ 1.42 µM) |

tested on: Candida albicans; assay: Antifungal activity against Candida albicans isolated from HSCT recipient 301 with acute or chronic GVHD mouth after 114 days prophylaxis by broth microdilution method; assay type: functional

| SMILES | MIC [µg/mL] |
| --- | --- |
| CCC(C)n1ncn(-c2ccc(N3CCN(c4ccc(OCC5COC(Cn6cncn6)(c6ccc(Cl)cc6Cl)O5)cc4)CC3)cc2)c1=O (stereo unspecified) [ITRACONAZOLE] | < 0.015 |

tested on: Candida albicans; assay: Antifungal activity against Candida albicans isolated from neutropenic subjects with AML or MDS receiving posaconazole assessed as maximum MIC by broth microdilution method; assay type: functional

| SMILES | MIC [µg/mL] |
| --- | --- |
| CCC(C)n1ncn(-c2ccc(N3CCN(c4ccc(OCC5COC(Cn6cncn6)(c6ccc(Cl)cc6Cl)O5)cc4)CC3)cc2)c1=O (stereo unspecified) [ITRACONAZOLE] | 0.03 |

tested on: Pichia kudriavzevii; assay: Antifungal activity against 8 days cultured Candida krusei isolated from neutropenic subject with AML or MDS pharynx after 12 days of prophylaxis by broth microdilution method; assay type: functional

| SMILES | MIC [µg/mL] |
| --- | --- |
| CCC(C)n1ncn(-c2ccc(N3CCN(c4ccc(OCC5COC(Cn6cncn6)(c6ccc(Cl)cc6Cl)O5)cc4)CC3)cc2)c1=O (stereo unspecified) [ITRACONAZOLE] | 0.25 (≈ 0.354 µM) |

tested on: Nakaseomyces glabratus; assay: Antifungal activity against 176 days cultured Candida glabrata isolated from HSCT recipient with acute or chronic GVHD mouth receiving antifungal therapy for 172 days after 114 days of prophylaxis by broth microdilution method; assay type: functional

| SMILES | MIC [µg/mL] |
| --- | --- |
| CCC(C)n1ncn(-c2ccc(N3CCN(c4ccc(OCC5COC(Cn6cncn6)(c6ccc(Cl)cc6Cl)O5)cc4)CC3)cc2)c1=O (stereo unspecified) [ITRACONAZOLE] | 8 (≈ 11.3 µM) |

tested on: Nakaseomyces glabratus; assay: Antifungal activity against 1 day cultured Candida glabrata isolated from HSCT recipient with acute or chronic GVHD mouth receiving antifungal therapy for 143 days after 116 days of prophylaxis by broth microdilution method; assay type: functional

| SMILES | MIC [µg/mL] |
| --- | --- |
| CCC(C)n1ncn(-c2ccc(N3CCN(c4ccc(OCC5COC(Cn6cncn6)(c6ccc(Cl)cc6Cl)O5)cc4)CC3)cc2)c1=O (stereo unspecified) [ITRACONAZOLE] | 1 (≈ 1.42 µM) |

tested on: Candida albicans; assay: Antifungal activity against Candida albicans isolated from HSCT recipient 262 with acute or chronic GVHD mouth receiving antifungal drug after 115 days prophylaxis by broth microdilution method; assay type: functional

| SMILES | MIC [µg/mL] |
| --- | --- |
| CCC(C)n1ncn(-c2ccc(N3CCN(c4ccc(OCC5COC(Cn6cncn6)(c6ccc(Cl)cc6Cl)O5)cc4)CC3)cc2)c1=O (stereo unspecified) [ITRACONAZOLE] | 0.06 (≈ 0.085 µM) |

tested on: Pichia kudriavzevii; assay: Antifungal activity against 6 days cultured Candida krusei isolated from neutropenic subject with AML or MDS stool receiving antifungal therapy for 19 days after 6 days of prophylaxis by broth microdilution method; assay type: functional

| SMILES | MIC [µg/mL] |
| --- | --- |
| CCC(C)n1ncn(-c2ccc(N3CCN(c4ccc(OCC5COC(Cn6cncn6)(c6ccc(Cl)cc6Cl)O5)cc4)CC3)cc2)c1=O (stereo unspecified) [ITRACONAZOLE] | 0.5 (≈ 0.709 µM) |
